pIC50: −log10 of the molar value. The source made the active and inactive calls.
Tests used:
Pyricularia oryzae = assay: Antimicrobial activity against Pyricularia oryzae kita-1 assessed as reduction in microbial growth up to 70 uM after 48 hrs; format: functional, organism-based; conditions: dose microM <=70, time 48.0 hrs
NRK = assay: Cytotoxicity against rat NRK cells infected with ts25 T-class mutant of Rous sarcoma virus Prague strain assessed as reduction in cell viability up to 70 uM after 48 hrs by WST-8 assay; format: functional, cell-based; conditions: dose microM <=70, time 48.0 hrs
HeLa = assay: Cytotoxicity against human HeLa cells assessed as reduction in cell viability up to 70 uM after 48 hrs by WST-8 assay; format: functional, cell-based; conditions: dose microM <=70, time 48.0 hrs
Escherichia coli = assay: Antimicrobial activity against Escherichia coli HO141 assessed as reduction in microbial growth up to 70 uM after 24 hrs; format: functional, organism-based; conditions: dose microM <=70, time 24.0 hrs
HL-60 = assay: Cytotoxicity against human HL-60 cells assessed as reduction in cell viability up to 70 uM after 48 hrs by WST-8 assay; format: functional, cell-based; conditions: dose microM <=70, time 48.0 hrs
Plasmodium falciparum = assay: Antimalarial activity against Plasmodium falciparum 3D7; format: functional, organism-based
Candida albicans = assay: Antimicrobial activity against Candida albicans JCM1542 assessed as reduction in microbial growth up to 70 uM after 48 hrs; format: functional, organism-based; conditions: dose microM <=70, time 48.0 hrs
Aspergillus fumigatus = assay: Antimicrobial activity against Aspergillus fumigatus Af293 assessed as reduction in microbial growth up to 70 uM after 48 hrs; format: functional, organism-based; conditions: dose microM <=70, time 48.0 hrs
Staphylococcus aureus = assay: Antimicrobial activity against Staphylococcus aureus 209 assessed as reduction in microbial growth up to 70 uM after 24 hrs; format: functional, organism-based; conditions: dose microM <=70, time 24.0 hrs

C\C1=C/C=C\C=C\[C@H](C)CNC(=O)CC(=O)C[C@@H]2O[C@H]3[C@@H]4[C@@H](C=C[C@H]1[C@H]42)[C@@H](O)C[C@H]3O
inactive: Activity (Pyricularia oryzae) | Activity (NRK) | Activity (HeLa) | Activity (Escherichia coli) | Activity (HL-60) | Activity (Candida albicans) | Activity (Aspergillus fumigatus) | Activity (Staphylococcus aureus)
4.92: pIC50 (Plasmodium falciparum)

— ChEMBL document CHEMBL4673303, “Heterologous Expression of the Biosynthetic Gene Cluster for Verticilactam and Identification of Analogues” (J Nat Prod, 2020)
